This experiment relates to HLA-A2.1 expressing cell lines presenting frameshift peptides. Nature of the experiment: Cytotoxicity assay of CTL directed against cells displaying frameshift peptides. Type of experiment: cell-based, human. As to conditions: cold targets: T2 cells pulsed with peptide, inhibitor:target ratio 50:1. How it is done:
(FSP02); The antigen specificity of the FSP02 CTL line was tested in the presence of unlabeled cold targets, T2 cells pulsed with FSP02 (open squares) at an inhibitor:target ratio of 50:1. Lysis without cold targets is shown as a control (closed squares). All data are shown as the mean and standard deviation from 3 replicate wells. For experimental details see example 6.
(FSP06); The antigen specificity of the FSP06 CTL line was tested in the presence of unlabeled cold targets, T2 cells pulsed either with FSP06 (open squares) at an inhibitor:target ratio of 50:1. Lysis without cold targets is shown as a control (closed squares). All data are shown as the mean and standard deviation from 3 replicate wells. For experimental details see example 6.
CTL bulk cultures and/or CTL clones obtained according to the method described in Example 1 were tested for their cytotoxicity as follows:
Due to the limited amount of cell material clones were in some experiments pooled for the determination of the cytotoxicity. […]

Turning to “RLSSCVPVA [FSP02, frameshift peptide from TGF-betaRII (−1), start amino acid 131]”, the “lysis of target cells by FSP CTL line (antigen specificity)” value is “Frameshift peptide specific and HLA-A2-restricted lysis of target cells”.

As for “SLYKFSPFPL [FSP06, frameshift peptide from OGT (−1), start amino acid 128]”, the “lysis of target cells by FSP CTL line (antigen specificity)” value was “Frameshift peptide specific and HLA-A2-restricted lysis of target cells”.

(Values after patent US8821864B2, “Compounds and methods useful for detection and treatment of cancer” (Roche MTM Laboratories AG, priority 2002, dated 2014).)
